Measurements: article PMC8021898 (Frontiers in Pharmacology, 2021)
pEC50, pIC50, pKi: −log10 of the molar value. Converted amounts (≈) assume the structure as drawn. “And” between values parts separate entries of the source, which are not always exact repeats. Equal entries are not always repeated. Where two headings read alike, the source gives them in different places.

Tests used:
human skin mast cells = settings: 10 μM pre-incubation; ref Lippert et al., 2004; cited from earlier work
SARS-CoV-2 = assay: microbe, parasite or virus in culture; type: cell-based; settings: for pIC50: read-out: Antiviral: IC50; for IC90: read-out: Antiviral: IC90; for inhibition of SARS-CoV-2 infection: Vero E6 cell-based assay
[1] = tested on: H2 in primary human eosinophils; settings: ref Reher et al., 2012, cited from earlier work
318 known human GPCRs = settings: 10 microM final; threshold >3x basal; follow up studies
Description: (§1) Human G-coupled Protein Receptor genome (GPCRome) screening was carried out according to published procedure ([Kroeze et al., 2015]) with minor modifications. In brief, HTLA cells were subcultured into poly-L-lysine coated clear bottom 384-well white plates at a density of 6,000 cells/well in 40 ul of DMEM supplemented with 1% dialyzed FBS for overnight, transfected with 20 ng/well Tango constructs for 24 h, received drug stimulation (10 uM final) for another 24 h. Medium and drug solutions were removed and Bright-Glo Reagents (Promega) were added for luminescence counting. For concentration response assays, HTLA cells were transfected with Tango constructs for 24 h, plated in poly-L-Lysine coated clear bottom 384-well white plates at a density of 10,000 cells/well in 40 ul of DMEM supplemented with 1% dialyzed FBS for 6 h before receiving drugs for overnight stimulation. Plates were then counted as above.

bradykinin receptor B1 = bradykinin receptor B1 (Homo sapiens, UniProt P46663); settings: quadruplicate replicate
Description: as §1

bradykinin receptor B2 = bradykinin receptor B2 (Homo sapiens, UniProt P30411); settings: quadruplicate replicate
Description: as §1

histamine H2 receptor [2] = molecular target: T1, histamine H2 receptor (Homo sapiens, UniProt P25021); assay: cell-based
COVID-19 patient = settings: one patient, 60 mg p.o. t.i.d. for 30 days, started day 8 of symptoms; anecdotal
H2 [3] = molecular target: T2, H2 (Homo sapiens, UniProt P25021); assay: cell-based
Description: cAMP production was determined in transiently transfected HEK293T cells ([Stauch et al., 2019]) with minor modifications. In brief, HEK293 T cells were co-transfected with H2 and GloSensor cAMP reporter DNA (Promega) overnight and plated in poly-l-lysine coated clear bottom 384-well white plate at a density of 15,000 cells/well in 40 ul of DMEM supplemented with 1% dialyzed FBS for 6 h. Medium was removed and cells were loaded with 3 mM luciferin in drug buffer (20 ul/well, 1x HBSS, 20 mM HEPES, pH 7.40) for 30 min. Test compounds were prepared in the same drug buffer supplemented with 1 mg/ml BSA and added (20 ul/well at 2x) to cells. Luminescence was counted after 20 min and results were analyzed in Prism 8.4.

[4] = for Css Free drug Concentration (mass/volume) / Css Free drug Concentration (molarity): approximately 20% protein bound
H2 [5] = molecular target: T2, H2; assay: biochemical; settings: affinity (Ki) for histamine H2 receptor
Description: Radioligand binding assays with human histamine receptors. Radioligand binding assays with human H1, H2, H3, and H4 receptors were conducted according to the NIMH PDSP assay protocol (https://pdsp.unc.edu/pdspweb/?site=assays) and published procedures ([Besnard et al., 2012]).

[6] = tested on: H2 in primary human neutrophils; settings: ref Reher et al., 2012, cited from earlier work
histamine H2 receptor [7] = settings: cited from earlier work
human sigma-1 receptor = human sigma-1 receptor (Homo sapiens, UniProt Q99720); settings: concentrations up to 10 μM
Description: All reactions were performed in triplicate using a 96-well block. […] Data were analyzed using GraphPad Prism software.

human sigma-2 (TMEM97) = human sigma-2 (TMEM97) (Homo sapiens, UniProt Q5BJF2); settings: concentrations up to 10 μM
Description: Sigma-2 competition curves were performed in a similar manner, using Expi293 cells overexpressing the human sigma-2 (TMEM97) and using [^3H] DTG as the radioactive probe.

histamine H2 receptor [8] = molecular target: T1, histamine H2 receptor; settings: partial agonist
[9] = tested on: hospitalized COVID-19 patients; settings: ref Cheung et al., 2020, Shoaibi et al., Yeramaneni et al.; cited from earlier work
in vitro = settings: African green monkey
[10] = tested on: H2 in primary human neutrophils; settings: ref Reher et al., 2012, cited from earlier work; remark: listed apart in the source
[11] = MTT cytotoxicity assay in uninfected Vero E6 cells; settings: African green monkey, uninfected Vero E6 cells
Vero E6 cells = assay: MTT cytotoxicity assay in uninfected Vero E6 cells; settings: uninfected Vero E6, MTT
[12] = Severe acute respiratory syndrome coronavirus 2, Vero C1008, Vero E6, 48 h, MOI 0.025
[13] = 40 mg tablet p.o. t.i.d., pK data reported by Lin et al. (1987)
[14] = 40 mg tablet p.o. t.i.d., pK data reported by Yeh et al. (1987)
[15] = Severe acute respiratory syndrome coronavirus 2, Vero C1008, 48 h

T2 sequence (P25021 whole entry): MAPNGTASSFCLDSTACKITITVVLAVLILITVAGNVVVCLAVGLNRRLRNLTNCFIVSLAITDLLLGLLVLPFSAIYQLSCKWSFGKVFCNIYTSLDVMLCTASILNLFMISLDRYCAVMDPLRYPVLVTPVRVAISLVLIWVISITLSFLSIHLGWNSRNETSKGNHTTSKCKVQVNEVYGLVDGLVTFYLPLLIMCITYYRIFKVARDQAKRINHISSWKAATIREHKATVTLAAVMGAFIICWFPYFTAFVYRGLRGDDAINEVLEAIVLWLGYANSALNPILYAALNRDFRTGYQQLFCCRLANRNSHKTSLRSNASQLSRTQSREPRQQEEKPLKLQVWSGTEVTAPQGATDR
T1 sequence (P25021 whole entry): as above
human sigma-2 (TMEM97), sequence (Q5BJF2 whole entry): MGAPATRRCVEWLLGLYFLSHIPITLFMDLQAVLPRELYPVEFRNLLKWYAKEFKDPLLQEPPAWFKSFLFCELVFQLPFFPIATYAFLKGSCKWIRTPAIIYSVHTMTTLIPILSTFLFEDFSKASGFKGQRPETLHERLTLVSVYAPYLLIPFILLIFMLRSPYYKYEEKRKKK
bradykinin receptor B2, sequence (P30411 whole entry): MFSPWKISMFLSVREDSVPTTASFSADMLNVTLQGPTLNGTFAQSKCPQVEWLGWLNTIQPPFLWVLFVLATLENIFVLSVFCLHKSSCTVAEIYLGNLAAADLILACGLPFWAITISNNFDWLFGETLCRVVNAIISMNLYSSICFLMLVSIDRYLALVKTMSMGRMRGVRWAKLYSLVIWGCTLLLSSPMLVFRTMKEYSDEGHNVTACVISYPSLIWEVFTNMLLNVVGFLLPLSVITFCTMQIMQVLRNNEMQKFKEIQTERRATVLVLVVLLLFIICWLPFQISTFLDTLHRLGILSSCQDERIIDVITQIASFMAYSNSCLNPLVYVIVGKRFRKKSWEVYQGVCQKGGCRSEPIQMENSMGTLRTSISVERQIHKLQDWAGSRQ
human sigma-1 receptor, sequence (Q99720 whole entry): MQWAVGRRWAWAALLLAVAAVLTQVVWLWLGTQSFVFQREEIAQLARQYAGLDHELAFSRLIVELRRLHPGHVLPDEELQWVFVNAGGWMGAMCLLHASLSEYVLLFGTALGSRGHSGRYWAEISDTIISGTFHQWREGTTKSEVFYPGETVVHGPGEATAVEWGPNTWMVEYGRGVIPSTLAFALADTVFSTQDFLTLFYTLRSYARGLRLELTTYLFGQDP
bradykinin receptor B1, sequence (P46663 whole entry): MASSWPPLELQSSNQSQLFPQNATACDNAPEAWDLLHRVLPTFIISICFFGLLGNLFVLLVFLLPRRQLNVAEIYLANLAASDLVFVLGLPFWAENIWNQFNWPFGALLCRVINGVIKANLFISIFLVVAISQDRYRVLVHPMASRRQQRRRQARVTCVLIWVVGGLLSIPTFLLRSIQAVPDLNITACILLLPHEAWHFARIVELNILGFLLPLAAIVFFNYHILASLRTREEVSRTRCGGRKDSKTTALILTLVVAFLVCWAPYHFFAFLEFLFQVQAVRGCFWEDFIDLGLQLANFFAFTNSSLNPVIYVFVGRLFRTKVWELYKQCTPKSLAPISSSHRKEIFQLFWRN

NC(N)=Nc1nc(CSCCC(N)=NS(N)(=O)=O)cs1 [Famotidine]
effect on histamine-induced cAMP increase (human skin mast cells): blocks histamine-induced cAMP increase | pIC50 (SARS-CoV-2; [12]): < 4.00 | IC90 (SARS-CoV-2; [12]): > 100000 nM | inhibition of SARS-CoV-2 infection (SARS-CoV-2): no inhibition | pIC50 ([1]; read-out: IC50 Eosinophil H2 cAMP assay, Concentration (molarity)): 6.80 | IC50 Eosinophil H2 cAMP assay, Concentration (mass/volume) [1]: 0.0536 µg/mL (≈ 0.159 µM) | agonist activity at GPCRs other than H2 (318 known human GPCRs): no agonist activity | activation of bradykinin receptor B1 (bradykinin receptor B1): no activation | activation of bradykinin receptor B2 (bradykinin receptor B2): no activation | pEC50 (histamine H2 receptor [2]): 6.98 | clinical symptoms after initiating treatment (COVID-19 patient): relief of symptoms overnight | pEC50 (H2 [3]): 7.48 | activity on H2 in the presence of histamine (H2 [3]; Figure 4B): antagonist activity | inverse agonist activity, reduction of basal activity (H2 [3]; cAMP, H2): 75% | Css Free drug Concentration (mass/volume) ([4]; 20 mg capsule p.o. b.i.d.): 29.4 µg/L | Css Free drug Concentration (molarity) ([4]; 20 mg capsule p.o. b.i.d.): 87 nM | Css Free drug Concentration (mass/volume) ([4]; 20 mg capsule p.o. q.d.): 14.7 µg/L | Css Free drug Concentration (molarity) ([4]; 20 mg capsule p.o. q.d.): 44 nM | Css Free drug Concentration (mass/volume) ([4]; 20 mg capsule p.o. t.i.d.): 44.2 µg/L | Css Free drug Concentration (molarity) ([4]; 20 mg capsule p.o. t.i.d.): 131 nM | Css Free drug Concentration (mass/volume) ([4]; 20 mg tablet p.o. b.i.d.): 28.3 µg/L | Css Free drug Concentration (molarity) ([4]; 20 mg tablet p.o. b.i.d.): 84 nM | Css Total Concentration (mass/volume) ([4]; 20 mg tablet p.o. q.d.): 53 nM | Css Free drug Concentration (mass/volume) ([4]; 20 mg tablet p.o. q.d.): 14.2 µg/L | Css Free drug Concentration (molarity) ([4]; 20 mg tablet p.o. q.d.): 42 nM | Css Free drug Concentration (mass/volume) ([4]; 20 mg tablet p.o. t.i.d.): 42.5 µg/L | Css Free drug Concentration (molarity) ([4]; 20 mg tablet p.o. t.i.d.): 126 nM | Css Free drug Concentration (mass/volume) [4, 13]: 44.3 µg/L | Css Free drug Concentration (molarity) [4, 13]: 131 nM | Css Free drug Concentration (mass/volume) [4, 14]: 64.6 µg/L | Css Free drug Concentration (molarity) [4, 14]: 192 nM | Css Free drug Concentration (mass/volume) ([4]; 60 mg tablet p.o. t.i.d.): 115.4 µg/L | Css Free drug Concentration (molarity) ([4]; 60 mg tablet p.o. t.i.d.): 340 nM | Css Free drug Concentration (mass/volume) ([4]; 120 mg IV every 8 h): 1,032 μg/l | Css Free drug Concentration (molarity) ([4]; 120 mg IV every 8 h): 874 nM | pKi (H2 [5]): ~7.85 and 7.85 | pIC50 ([6]; read-out: IC50 Neutrophil H2 O2- assay, Concentration (molarity)): 6.70 | IC50 Neutrophil H2 O2- assay, Concentration (mass/volume) [6]: 0.067 µg/mL (≈ 0.199 µM) | pIC50 (histamine H2 receptor [7]; read-out: IC50 Histamine H2, Concentration (molarity), ref Lin et al., 1987, 1991): 7.41 | IC50 Histamine H2, Concentration (mass/volume) (histamine H2 receptor [7]; ref Lin et al., 1987, 1991): 0.013 µg/mL (≈ 0.0385 µM) | displacement of radioligand probe, sigma-1 (human sigma-1 receptor): no detectable displacement | displacement of radioligand probe, sigma-2 (human sigma-2 (TMEM97)): no detectable displacement | arrestin recruitment efficacy (histamine H2 receptor [8]): about 15 % that of histamine | effect in more recent retrospective studies [9]: no effect | CC50 (in vitro): > 100000 nM | pIC50 ([10]; read-out: IC50 Neutrophil H2 cAMP assay, Concentration (molarity)): 7.62 | IC50 Neutrophil H2 cAMP assay, Concentration (mass/volume) [10]: 0.008 µg/mL (≈ 0.0237 µM)

CCN(CCO)CCCC(C)Nc1ccnc2cc(Cl)ccc12 (stereo not shown) [Hydroxychloroquine]
pIC50 (SARS-CoV-2; [15]): 5.84 | IC90 (SARS-CoV-2; [15]): 3470 nM | inhibition of SARS-CoV-2 infection (SARS-CoV-2): demonstrated antiviral activity | CC50 at 48 h [11]: > 20000 nM | Cytotoxicity: CC10 (Vero E6 cells): 216 nM

CCC(CC)COC(=O)[C@H](C)N[P@](=O)(OC[C@H]1O[C@@](C#N)(c2ccc3c(N)ncnn23)[C@H](O)[C@@H]1O)Oc1ccccc1 [Remdesivir]
pIC50 (SARS-CoV-2; [15]): 6.02 | IC90 (SARS-CoV-2; [15]): 1770 nM | inhibition of SARS-CoV-2 infection (SARS-CoV-2): demonstrated antiviral activity | Cytotoxicity: CC10 (Vero E6 cells): > 20000 nM | CC50 (in vitro): > 20000 nM

CN/C(=N/CCSCc1nc[nH]c1C)NC#N [Cimetidine]
Css Free drug Concentration (mass/volume) ([4]; 200 mg tablet p.o. q.d.): 140 µg/L | Css Free drug Concentration (mass/volume) ([4]; 300 mg tablet p.o. q.d.): 180.1 µg/L | Css Free drug Concentration (molarity) ([4]; 300 mg tablet p.o. q.d.): 720 nM

NCCc1c[nH]cn1 [histamine]
stimulation of cAMP production (H2 [3]; N = 2): 20 fold of basal
